Ki and IC50 data for 24 molecules are collected here from patent US9732094B2, “Arylquinazolines” (Merck Patent GmbH, priority 2013, dated 2017).

One series deals with Kv11.1 (hERG) (Homo sapiens (Human), UniProt Q12809). Put plainly: Kv11.1 (hERG) ion channel activity (patch clamp assay), HEK293 cells transfected with hERG gene. (In general: Block of hERG is tested as a sign of cardiac risk.)
The target in the next series is DNA-PK (Homo sapiens (Human), UniProt P78527). As to the kind of experiment: DNA-PK assay (biochemical), flashplate 33P-ATP kinase assay. In short, it runs like this:
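Radiometric kinase reaction in streptavidin-coated flashplates, stopped with 200 mM EDTA, then 30 min room-temperature incubation and saline washes.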

The target of series [1] is DNA-PK phosphorylation at serine 2056 (Homo sapiens (Human), UniProt P78527). Put plainly: DNA-PK phosphorylation at serine 2056 (cellular), bleomycin-treated HCT116 cells, ELISA. Type of series: cell-based. Particulars: read-out: IC50 pDNA-PK. In short, it runs like this:
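Chemiluminescent ELISA read-out; phospho-specific signal normalised to total DNA-PKcs. Cells (HCT116) exposed 6 h to test compound plus 10 μM bleomycin to induce double-strand breaks; DMSO control served as blank.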
(ELISA stands for enzyme-linked immunosorbent assay.)

[2] abbreviates: cellular DNA-PK phosphorylation at serine 2056, HCT116.
Setting [3] is: read-out: Ki [Kv1.11 hERG], patch clamp, HEK293 transfected with hERG gene.
The mark [4] stands for this setting: cellular, HCT116 cells, 10 μM bleomycin, six hours.
Setting [5] is: Ki [Kv1.11 hERG], patch clamp, HEK293 transfected with hERG gene.
Where [6] appears, read: Ki [Kv1.11 hERG], hERG patch clamp assay (cells without asterisk).
Setting [7] is: read-out: Ki [Kv1.11 hERG], hERG patch clamp assay (cells without asterisk).

The structures appear in SMILES notation. Read-outs that look alike come from different tables or passages of the source.

By Ki is commonly meant the dissociation constant of the complex between target and ligand, obtained from inhibition or displacement. Usually IC50 stands for the concentration at which inhibition is half-maximal.

Kv11.1 (hERG), sequence (Q12809 whole entry): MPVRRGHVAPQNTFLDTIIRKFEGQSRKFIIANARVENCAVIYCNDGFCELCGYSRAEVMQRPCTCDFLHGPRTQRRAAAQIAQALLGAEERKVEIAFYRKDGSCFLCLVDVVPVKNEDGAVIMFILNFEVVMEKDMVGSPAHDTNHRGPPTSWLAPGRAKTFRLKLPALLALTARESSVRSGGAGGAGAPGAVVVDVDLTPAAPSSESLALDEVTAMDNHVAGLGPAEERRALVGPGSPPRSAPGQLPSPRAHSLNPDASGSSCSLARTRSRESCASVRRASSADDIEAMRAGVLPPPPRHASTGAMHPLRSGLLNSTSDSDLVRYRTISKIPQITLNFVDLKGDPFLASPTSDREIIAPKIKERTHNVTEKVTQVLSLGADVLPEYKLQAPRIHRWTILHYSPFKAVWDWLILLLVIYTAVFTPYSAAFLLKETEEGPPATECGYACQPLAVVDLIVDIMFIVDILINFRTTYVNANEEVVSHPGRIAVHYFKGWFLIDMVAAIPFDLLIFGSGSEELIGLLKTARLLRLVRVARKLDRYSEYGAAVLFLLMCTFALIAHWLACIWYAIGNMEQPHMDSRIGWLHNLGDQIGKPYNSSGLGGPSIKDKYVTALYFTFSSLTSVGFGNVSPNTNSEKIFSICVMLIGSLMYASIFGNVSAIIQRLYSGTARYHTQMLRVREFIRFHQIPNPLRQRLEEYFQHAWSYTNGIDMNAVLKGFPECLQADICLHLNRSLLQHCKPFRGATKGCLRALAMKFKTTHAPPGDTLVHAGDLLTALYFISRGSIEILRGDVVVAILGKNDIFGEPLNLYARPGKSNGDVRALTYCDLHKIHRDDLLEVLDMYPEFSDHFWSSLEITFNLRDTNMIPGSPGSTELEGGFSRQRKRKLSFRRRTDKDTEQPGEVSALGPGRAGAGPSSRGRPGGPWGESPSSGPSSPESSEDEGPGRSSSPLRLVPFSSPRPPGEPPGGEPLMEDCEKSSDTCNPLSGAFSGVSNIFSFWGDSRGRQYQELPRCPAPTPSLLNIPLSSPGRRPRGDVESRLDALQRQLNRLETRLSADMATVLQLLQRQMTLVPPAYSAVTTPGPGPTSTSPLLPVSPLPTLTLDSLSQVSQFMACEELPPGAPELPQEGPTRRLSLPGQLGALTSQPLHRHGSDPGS

As to `OC(c1cccnn1)c1cc(-c2ncnc3cc(N4CCOCC4)ccc23)ccc1Cl` (single isomer, unassigned) [Example 469, [2-Chloro-5-(7-morpholin-4-yl-quinazolin-4-yl)-phenyl]pyridazin-3-yl-methanol], at Kv11.1 (hERG) (human, HEK293 cells stably transfected with the hERG gene, Ki [Kv1.11 hERG], hERG patch clamp assay (cells without asterisk)), the Ki was in the range of 10 to 15 µM. Besides, the 50% inhibitory concentration (IC50) against DNA-PK (biochemical DNA-PK assay) is > 0.03 µM; in series [1] (setting [2]), 10 to 30 µM.
For the molecule `OC(c1ccc(F)c(-c2ncnc3cc(N4CCOCC4)ccc23)c1)c1nccs1` (stereo not drawn) [Example 211, [4-Fluoro-3-(7-morpholin-4-yl-quinazolin-4-yl)-phenyl]thiazol-2-ylmethanol], at Kv11.1 (hERG) (setting [3]), the Ki was > 25 µM. Besides, the IC50 on DNA-PK (enzymatic, 5 μM ATP) lay within 0.003 to 0.007 µM; in series [1] (setting [4]), 0.5 to 5 µM.
Take `COc1cnc(Cl)c(C(O)c2ccc(F)c(-c3ncnc4cc(N5CCOCC5)ccc34)c2)n1` (stereo not drawn) [Example 26, (3-Chloro-6-methoxy-pyrazin-2-yl)-[4-fluoro-3-(7-morpholin-4-yl-quinazolin-4-yl)phenyl]-methanol]: the Ki on Kv11.1 (hERG) (setting [3]) was > 25 µM. Also, the half-maximal inhibitory concentration (IC50) on DNA-PK (enzymatic, 5 μM ATP) is < 0.003 µM; in series [1] (setting [4]) it was < 0.5 µM.
`Cn1nc(C(O)c2cc(-c3ncnc4cc(N5CCOCC5)ccc34)c(F)cc2Cl)ccc1=O` (single isomer, unassigned) [Example 44, 6-{[2-Chloro-4-fluoro-5-(7-morpholin-4-yl-quinazolin-4-yl)phenyl]-hydroxymethyl}-2-methyl-2H-pyridazin-3-one] yielded an inhibition constant (Ki) on Kv11.1 (hERG) (setting [5]) of 15 to 25 µM. The IC50 at DNA-PK (enzymatic, 5 μM ATP) fell in the range of 0.007 to 0.03 µM; in series [1] (setting [4]), 5 to 10 µM.
The like results for `COc1cc(Cl)nnc1C(O)c1cc(-c2ncnc3cc(N4CCOCC4)ccc23)c(F)cc1Cl` (stereo not drawn) [Example 8, [2-Chloro-4-fluoro-5-(7-morpholin-4-yl-quinazolin-4-yl)phenyl]-(6-chloro-4-methoxy-pyridazin-3-yl)methanol] were, in that order, 10 to 15 µM, 0.007 to 0.03 µM and 0.5 to 5 µM.
Regarding `Cc1nc(C(O)c2cc(-c3ncnc4cc(N5CCOCC5)ccc34)cnc2F)sc1C` (stereo not drawn) [Example 205, (4,5-Dimethyl-thiazol-2-yl)-[2-fluoro-5-(7-morpholin-4-yl-quinazolin-4-yl)-pyridin-3-yl]-methanol], the inhibition constant (Ki) at Kv11.1 (hERG) (Ki [Kv1.11 hERG], Table 5) lay within 10 to 15 µM. In addition, the IC50 lay within 0.007 to 0.03 µM on DNA-PK (Table 5) and 10 to 30 µM in series [1] (Table 5, HCT116 cells).
`Cn1ncc2c(C(O)c3cc(-c4ncnc5cc(N6CCOCC6)ccc45)c(F)cc3Cl)ncnc21` (stereo not drawn) [Example 402, [2-Chloro-4-fluoro-5-(7-morpholin-4-yl-quinazolin-4-yl)-phenyl]-(1-methyl-1H-pyrazolo[3,4-d}-pyrimidin-4-yl)-methanol] showed a Ki at Kv11.1 (hERG) (setting [6]) of 15 to 25 µM. Besides, the IC50 lay within 0.003 to 0.007 µM at DNA-PK (biochemical DNA-PK assay) and 0.5 to 5 µM in series [1] (setting [2]).
For the molecule `Cc1nccnc1C(O)c1cc(-c2ncnc3cc(N4CCOCC4)ccc23)c(F)cc1Cl` (stereo not drawn) [Example 457, [2-Chloro-4-fluoro-5-(7-morpholin-4-yl-quinazolin-4-yl)-phenyl]-(3-methyl-pyrazin-2-yl)-methanol], at Kv11.1 (hERG) (setting [7]), the Ki is > 25 µM. In addition, the IC50 is 0.003 to 0.007 µM against DNA-PK (biochemical DNA-PK assay) and < 0.5 µM in series [1] (setting [2]).
`OC(c1ccc(F)c(-c2ncnc3cc(N4CCOCC4)ccc23)c1)c1nccn2cccc12` (stereo not drawn) [Example 356, [4-Fluoro-3-(7-morpholin-4-yl-quinazolin-4-yl)-phenyl]pyrrolo[1,2-a]-pyrazin-1-ylmethanol]: the Ki at Kv11.1 (hERG) (setting [7]) is < 10 µM. For the same molecule, the values for the IC50 (at DNA-PK (biochemical DNA-PK assay); in series [1] (setting [2])) were < 0.003 µM and < 0.5 µM, respectively.
The like results for `Cc1cnc(C(C(N)=O)c2cc(-c3ncnc4cc(N5CCOCC5)ccc34)c(F)cc2Cl)c(C)n1` (stereo not drawn) [Example 301, 2-[2-Chloro-4-fluoro-5-(7-morpholin-4-yl-quinazolin-4-yl)-phenyl]-2-(3,5-dimethyl-pyrazin-2-yl)acetamide] were, in that order, > 25 µM, 0.007 to 0.03 µM and 0.5 to 5 µM.
As for `Cc1cc(C(O)c2cc(-c3ncnc4cc(N5CCOCC5)ccc34)c(F)cc2Cl)n(C)c(=O)c1` (stereo not drawn) [Example 339, 6-{[2-Chloro-4-fluoro-5-(7-morpholin-4-yl-quinazolin-4-yl)-phenyl]hydroxy-methyl}-1,4-dimethyl-1H-pyridin-2-one], the Ki at Kv11.1 (hERG) (setting [7]) is > 25 µM. Also, the half-inhibitory concentration (IC50) against DNA-PK (biochemical DNA-PK assay) was in the range of 0.007 to 0.03 µM; in series [1] (setting [2]) it was 0.5 to 5 µM.
Turning to `O=c1ccc(C(O)c2cc(-c3ncnc4cc(N5CCOCC5)ccc34)c(F)cc2Cl)nn1CCO` (stereo not drawn) [Example 99, 6-{[2-Chloro-4-fluoro-5-(7-morpholin-4-yl-quinazolin-4-yl)phenyl]-hydroxymethyl}-2-(2-hydroxy-ethyl)-2H-pyridazin-3-one], on Kv11.1 (hERG) (setting [3]), the inhibition constant Ki was > 25 µM. Moreover, the concentration for half-maximal inhibition (IC50) against DNA-PK (enzymatic, 5 μM ATP) is 0.003 to 0.007 µM; in series [1] (setting [4]), 0.5 to 5 µM.
In the case of `NC(=O)C(c1ccc(F)c(-c2ncnc3cc(N4CCOCC4)ccc23)c1)c1ncccc1Cl` (stereo not drawn) [Example 313, 2-(3-Chloro-pyridin-2-yl)-2-[4-fluoro-3-(7-morpholin-4-yl-quinazolin-4-yl)-phenyl]acetamide], at Kv11.1 (hERG) (setting [6]), the inhibitory constant (Ki) was 15 to 25 µM. The IC50 at DNA-PK (biochemical DNA-PK assay) was in the range of 0.007 to 0.03 µM; in series [1] (setting [2]), 5 to 10 µM.
As to `O=C(O)c1ccc(C(O)c2cc(-c3ncnc4cc(N5CCOCC5)ccc34)c(F)cc2Cl)nn1` (stereo not drawn) [Example 55, 6-{[2-Chloro-4-fluoro-5-(7-morpholin-4-yl-quinazolin-4-yl)phenyl]-hydroxymethyl}-pyridazine-3-carboxylic acid], on Kv11.1 (hERG) (setting [3]), the inhibitory constant (Ki) was > 25 µM. For the same molecule, the IC50 is 0.003 to 0.007 µM against DNA-PK (enzymatic, 5 μM ATP) and 10 to 30 µM in series [1] (setting [4]).
`[2H]C1([2H])OC([2H])([2H])C([2H])([2H])N(c2ccc3c(-c4cc(C(O)c5nccnc5C)ccc4F)ncnc3c2)C1([2H])[2H]` (stereo not drawn) [Example 238, [4-Fluoro-3-[7-(2,2,3,3,5,5,6,6-octadeuteriomorpholin-4-yl)quinazolin-4-yl]phenyl]-(3-methyl-pyrazin-2-yl)-methanol] came in with a Ki on Kv11.1 (hERG) (setting [6]) of 15 to 25 µM. The IC50 on DNA-PK (biochemical DNA-PK assay) is < 0.003 µM; in series [1] (setting [2]) it was < 0.5 µM.
In turn, `OC(c1cc(-c2ncnc3cc(N4CCOCC4)ccc23)ccc1F)c1ncnc2ccoc12` (stereo not drawn) [Example 374, [2-Fluoro-5-(7-morpholin-4-yl-quinazolin-4-yl)-phenyl]furo[3,2-d}-pyrimidin-4-yl-methanol] yielded an inhibition constant (Ki) on Kv11.1 (hERG) (setting [6]) of 15 to 25 µM. The figures for the IC50 (on DNA-PK (biochemical DNA-PK assay); in series [1] (setting [2])) were < 0.003 µM and 0.5 to 5 µM, respectively.
Regarding `O=C1CCCN1c1nccnc1C(O)c1ccc(F)c(-c2ncnc3cc(N4CCOCC4)ccc23)c1` (stereo not drawn) [Example 425, 1-(3-{[4-Fluoro-3-(7-morpholin-4-yl-quinazolin-4-yl)-phenyl]hydroxy-methyl}pyrazin-2-yl)-pyrrolidin-2-one], the Ki at Kv11.1 (hERG) (setting [7]) is > 25 µM. Moreover, the IC50 on DNA-PK (biochemical DNA-PK assay) is > 0.03 µM; in series [1] (setting [2]), 10 to 30 µM.
Regarding `CC(C#N)Oc1ccc(C(O)c2cc(-c3ncnc4cc(N5CCOCC5)ccc34)c(F)cc2Cl)nn1` (single isomer, unassigned) [Example 103, 2-(6-{[2-Chloro-4-fluoro-5-(7-morpholin-4-yl-quinazolin-4-yl)-phenyl]hydroxy-methyl}pyridazin-3-yloxy)propionitrile], the Ki on Kv11.1 (hERG) (setting [3]) is > 25 µM. The IC50 was > 0.03 µM on DNA-PK (enzymatic, 5 μM ATP) and 10 to 30 µM in series [1] (setting [4]).
`[2H]C1([2H])OC([2H])([2H])C([2H])([2H])N(c2ccc3c(-c4cc(C(O)c5nccnc5OC)c(Cl)cc4F)ncnc3c2)C1([2H])[2H]` (stereo not drawn) [Example 241, [2-Chloro-4-fluoro-5-[7-(2,2,3,3,5,5,6,6-octadeuteriomorpholin-4-yl)quinazolin-4-yl]phenyl]-(3-methoxypyrazin-2-yl)methanol] gave an inhibition constant (Ki) at Kv11.1 (hERG) (setting [6]) of 10 to 15 µM. Besides, the IC50 on DNA-PK (biochemical DNA-PK assay) was < 0.003 µM; in series [1] (setting [2]) it was < 0.5 µM.
Take `COc1ccc(C(O)c2cc(-c3ncnc4cc(N5CCOCC5)sc34)c(F)cc2Cl)nn1` (stereo not drawn) [Example 128, (2-Chloro-4-fluoro-5-(6-morpholin-4-ylthieno[3,2-d}-pyrimidin-4-yl)-phenyl]-(6-methoxy-pyridazin-3-yl)-methanol]: the inhibition constant (Ki) on Kv11.1 (hERG) (setting [5]) was in the range of 15 to 25 µM. Besides, the IC50 at DNA-PK (enzymatic, 5 μM ATP) was < 0.003 µM; in series [1] (setting [4]), 0.5 to 5 µM.
In the case of `OC(c1ccc(F)c(-c2ncnc3cc(N4CCOCC4)ccc23)c1)c1nccc2ccoc12` (stereo not drawn) [Example 328, [4-Fluoro-3-(7-morpholin-4-yl-quinazolin-4-yl)-phenyl)furo[2,3-c]-pyridin-7-ylmethanol], the inhibition constant (Ki) at Kv11.1 (hERG) (setting [7]) is < 10 µM. The IC50 was < 0.003 µM on DNA-PK (biochemical DNA-PK assay) and < 0.5 µM in series [1] (setting [2]).
In the case of `COc1nccnc1C(O)c1ccc(F)c(-c2ncnc3cc(N4CCOCC4)ccc23)c1` (stereo not drawn) [Example 15, [4-Fluoro-3-(7-morpholin-4-yl-quinazolin-4-yl)phenyl]-(3-methoxy-pyrazin-2-yl)methanol], the inhibitory constant (Ki) on Kv11.1 (hERG) (setting [5]) lay in the range of 15 to 25 µM. The concentration for half-maximal inhibition (IC50) on DNA-PK (enzymatic, 5 μM ATP) was < 0.003 µM; in series [1] (setting [4]), < 0.5 µM.
The molecule `NC(=O)C(c1ccc(F)c(-c2ncnc3cc(N4CCOCC4)ccc23)c1)c1cncc(F)c1Cl` (stereo not drawn) [Example 322, 2-(4-Chloro-5-fluoro-pyridin-3-yl)-2-[4-fluoro-3-(7-morpholin-4-yl-quinazolin-4-yl)-phenyl]acetamide] displayed an inhibitory constant (Ki) on Kv11.1 (hERG) (setting [6]) of 10 to 15 µM. The IC50 was in the range of 0.003 to 0.007 µM on DNA-PK (biochemical DNA-PK assay) and 0.5 to 5 µM in series [1] (setting [2]).
As to `COc1ccc(C(O)c2cc(-c3ncnc4cc(N5CCOCC5)ccc34)ccc2Cl)nn1` (stereo not drawn) [Example 458, [2-Chloro-5-(7-morpholin-4-yl-quinazolin-4-yl)-phenyl]-(6-methoxy-pyridazin-3-yl)-methanol], the Ki on Kv11.1 (hERG) (setting [6]) lay within 10 to 15 µM. The 50% inhibitory concentration (IC50) against DNA-PK (biochemical DNA-PK assay) was < 0.003 µM; in series [1] (setting [2]), < 0.5 µM.
